pEC50: −log10 of the molar value.
System: HBV
Experiment: HBV inhibition assay: anti-HBV activity in vitro in HepG2.2.15 cells (extracellular HBV DNA by qPCR)
Assay type: cell-based
Details: five days after compound treatment, extracellular HBV DNA in culture supernatant by qPCR, concentration at which HBV replication is inhibited by 50%
How it was run: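 HepG2.2.15 cells (stably carrying HBV genome) treated with half-log serially diluted compounds at 0.5% DMSO final for five days. Extracellular HBV DNA in supernatant quantified by qPCR after Proteinase K digestion; EC50 is concentration giving 50% inhibition of replication.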

| SMILES | pEC50 (Hepatitis B virus, 120 h) | pEC50 |
| --- | --- | --- |
| C[C@H]1Cn2ncc(N3CC(C)(C)OC3=O)c2CN1C(=O)Nc1ccnc(C(F)F)c1 [Example 272, (6S)—N-[2-(difluoromethyl)-4-pyridyl]-3-(5,5-dimethyl-2-oxo-oxazolidin-3-yl)-6-methyl-6,7-dihydro-4H-pyrazolo[1,5-a]pyrazine-5-carboxamide] | 6.98 | – |
| C[C@H]1CN(C(=O)C2CC(=O)N(c3cnn4c3CN(C(=O)Nc3cc(F)c(F)c(F)c3)[C@@H](C)C4)C2)CCO1 (stereo partly drawn) [Example 395, (6S)-6-methyl-3-[4-[(2S)-2-methylmorpholine-4-carbonyl]-2-oxo-pyrrolidin-1-yl]-N-(3,4,5-trifluorophenyl)-6,7-dihydro-4H-pyrazolo[1,5-a]pyrazine-5-carboxamide] | 7.06 | – |
| CC1Cn2ncc(-c3ccc(F)cc3)c2CN1C(=O)Nc1ccc(F)c(C#N)c1 (stereo not drawn) [Example 86, N-(3-cyano-4-fluoro-phenyl)-3-(4-fluorophenyl)-6-methyl-6,7-dihydro-4H-pyrazolo[1,5-a]pyrazine-5-carboxamide] | 7.18 | – |
| O=C(Nc1ccc(F)c(Cl)c1)N1CCn2nnc(-c3ccc(F)cc3F)c2C1 [Example 155, N-(3-chloro-4-fluoro-phenyl)-3-(2,4-difluorophenyl)-6,7-dihydro-4H-triazolo[1,5-a]pyrazine-5-carboxamide] | 7.40 | – |
| C[C@H]1Cn2ncc(N3CC(c4nnco4)CC3=O)c2CN1C(=O)Nc1cc(F)c(F)c(F)c1 (stereo partly drawn) [Example 282, (6S)-6-methyl-3-[4-(1,3,4-oxadiazol-2-yl)-2-oxo-pyrrolidin-1-yl]-N-(3,4,5-trifluorophenyl)-6,7-dihydro-4H-pyrazolo[1,5-a]pyrazine-5-carboxamide] | 7.24 | – |
| O=C(Nc1ccc(F)c(Cl)c1)N1CCn2ncc(C3CCCCC3)c2C1 [Example 73, N-(3-chloro-4-fluoro-phenyl)-3-cyclohexyl-6,7-dihydro-4H-pyrazolo[1,5-a]pyrazine-5-carboxamide] | 7.35 | – |
| C[C@H]1Cn2ncc(N3CCNC3=O)c2CN1C(=O)Nc1cc(F)c(F)c(C(F)F)c1 [Example 373, (6S)—N-[3-(difluoromethyl)-4,5-difluoro-phenyl]-6-methyl-3-(2-oxoimidazolidin-1-yl)-6,7-dihydro-4H-pyrazolo[1,5-a]pyrazine-5-carboxamide] | 7.66 | – |
| C[C@H]1Cn2ncc(N3CCC(O)C3=O)c2CN1C(=O)Nc1ccc(F)c(Cl)c1 (stereo partly drawn) [Example 256, (6S)—N-(3-chloro-4-fluoro-phenyl)-3-(3-hydroxy-2-oxo-pyrrolidin-1-yl)-6-methyl-6,7-dihydro-4H-pyrazolo[1,5-a]pyrazine-5-carboxamide] | 7.17 | – |
| C[C@H]1Cn2ncc(N3CCOCC3=O)c2CN1C(=O)Nc1cc(F)c(F)c(Cl)c1 [Example 235, (6S)—N-(3-chloro-4,5-difluoro-phenyl)-6-methyl-3-(3-oxomorpholin-4-yl)-6,7-dihydro-4H-pyrazolo[1,5-a]pyrazine-5-carboxamide] | 7.41 | – |
| C[C@H]1Cn2ncc(N3C[C@@H](O)CC3=O)c2CN1C(=O)Nc1cc(F)c(F)c(F)c1 [Example 377, (6S)-3-[(4S)-4-hydroxy-2-oxo-pyrrolidin-1-yl]-6-methyl-N-(3,4,5-trifluorophenyl)-6,7-dihydro-4H-pyrazolo[1,5-a]pyrazine-5-carboxamide] | 7.09 | – |
| C[C@H]1Cn2ncc(N3CC(C(=O)Nc4ncco4)CC3=O)c2CN1C(=O)Nc1cc(F)c(F)c(F)c1 (stereo partly drawn) [Example 392, (6S)-6-methyl-3-[4-(oxazol-2-ylcarbamoyl)-2-oxo-pyrrolidin-1-yl]-N-(3,4,5-trifluorophenyl)-6,7-dihydro-4H-pyrazolo[1,5-a]pyrazine-5-carboxamide] | 7.06 | – |
| C[C@H]1Cn2ncc(N3CC(C#N)(CO)CC3=O)c2CN1C(=O)Nc1cc(F)c(F)c(F)c1 (stereo partly drawn) [Example 360, (6S)-3-[4-cyano-4-(hydroxymethyl)-2-oxo-pyrrolidin-1-yl]-6-methyl-N-(3,4,5-trifluorophenyl)-6,7-dihydro-4H-pyrazolo[1,5-a]pyrazine-5-carboxamide] | 7.37 | – |
| C[C@H]1Cn2ncc(N3CC(c4cccnc4)CC3=O)c2CN1C(=O)Nc1cc(F)c(F)c(F)c1 (stereo partly drawn) [Example 351, (6S)-6-methyl-3-[2-oxo-4-(3-pyridyl)pyrrolidin-1-yl]-N-(3,4,5-trifluorophenyl)-6,7-dihydro-4H-pyrazolo[1,5-a]pyrazine-5-carboxamide] | 7.92 | – |
| C[C@H]1Cn2ncc(N3CC(O)CC3=O)c2CN1C(=O)Nc1ccc(F)c(Cl)c1 (stereo partly drawn) [Example 232, (6S)—N-(3-chloro-4-fluoro-phenyl)-3-(4-hydroxy-2-oxo-pyrrolidin-1-yl)-6-methyl-6,7-dihydro-4H-pyrazolo[1,5-a]pyrazine-5-carboxamide] | 7.31 | – |
| C[C@H]1Cn2ncc(N3CC(c4cncnc4)CC3=O)c2CN1C(=O)Nc1cc(F)c(F)c(F)c1 (stereo partly drawn) [Example 413, (6S)-6-methyl-3-(2-oxo-4-pyrimidin-5-yl-pyrrolidin-1-yl)-N-(3,4,5-trifluorophenyl)-6,7-dihydro-4H-pyrazolo[1,5-a]pyrazine-5-carboxamide] | 7.12 | – |
| C[C@H]1Cn2ncc(N3CC(c4ccccc4)OC3=O)c2CN1C(=O)Nc1cc(F)c(F)c(F)c1 (stereo partly drawn) [Example 344, (6S)-6-methyl-3-(2-oxo-5-phenyl-oxazolidin-3-yl)-N-(3,4,5-trifluorophenyl)-6,7-dihydro-4H-pyrazolo[1,5-a]pyrazine-5-carboxamide] | 8.15 | – |
| C[C@@H]1[C@H](C)N(C(=O)Nc2cc(F)c(F)c(F)c2)Cc2c(N3CCCC3=O)cnn21 [Example 261, (6S,7R)-6,7-dimethyl-3-(2-oxopyrrolidin-1-yl)-N-(3,4,5-trifluorophenyl)-6,7-dihydro-4H-pyrazolo[1,5-a]pyrazine-5-carboxamide] | 7.40 | – |
| C[C@H]1Cn2ncc(-c3ccc(F)cc3)c2CN1C(=O)Nc1ccc(F)c(Cl)c1 [Example 102, (6S)—N-(3-chloro-4-fluoro-phenyl)-3-(4-fluorophenyl)-6-methyl-6,7-dihydro-4H-pyrazolo[1,5-a]pyrazine-5-carboxamide] | 7.85 | – |
| CC1CCN(c2cnn3c2CN(C(=O)Nc2cc(F)c(F)c(F)c2)[C@@H](C)C3)C(=O)O1 (stereo partly drawn) [Example 425, (6S)-6-methyl-3-(6-methyl-2-oxo-1,3-oxazinan-3-yl)-N-(3,4,5-trifluorophenyl)-6,7-dihydro-4H-pyrazolo[1,5-a]pyrazine-5-carboxamide] | 7.06 | – |
| C[C@H]1Cn2ncc(N3CC(C(=O)N4CCC(F)(F)C4)CC3=O)c2CN1C(=O)Nc1cc(F)c(F)c(F)c1 (stereo partly drawn) [Example 398, (6S)-3-[4-(3,3-difluoropyrrolidine-1-carbonyl)-2-oxo-pyrrolidin-1-yl]-6-methyl-N-(3,4,5-trifluorophenyl)-6,7-dihydro-4H-pyrazolo[1,5-a]pyrazine-5-carboxamide] | 7.10 | – |
| C[C@H]1Cn2ncc(N3C[C@H](O)CC3=O)c2CN1C(=O)Nc1cc(F)c(F)c(F)c1 [Example 376, (6S)-3-[(4R)-4-hydroxy-2-oxo-pyrrolidin-1-yl]-6-methyl-N-(3,4,5-trifluorophenyl)-6,7-dihydro-4H-pyrazolo[1,5-a]pyrazine-5-carboxamide] | 7.06 | – |
| CC1CN(c2cnn3c2CN(C(=O)Nc2ccc(F)c(Cl)c2)[C@@H](C)C3)C(=O)N1 (stereo partly drawn) [Example 326, (6S)—N-(3-chloro-4-fluoro-phenyl)-6-methyl-3-(4-methyl-2-oxo-imidazolidin-1-yl)-6,7-dihydro-4H-pyrazolo[1,5-a]pyrazine-5-carboxamide] | 7.34 | – |
| C[C@H]1Cn2ncc(N3C[C@@H](Oc4ncc(F)cn4)CC3=O)c2CN1C(=O)Nc1cc(F)c(F)c(F)c1 [Example 382, (6S)-3-[(4S)-4-(5-fluoropyrimidin-2-yl)oxy-2-oxo-pyrrolidin-1-yl]-6-methyl-N-(3,4,5-trifluorophenyl)-6,7-dihydro-4H-pyrazolo[1,5-a]pyrazine-5-carboxamide] | 7.80 | – |
| CC1Cn2ncc(-c3ccc(F)cc3F)c2CN1C(=O)Nc1ccnc(F)c1 (stereo not drawn) [Example 174, 3-(2,4-difluorophenyl)-N-(2-fluoro-4-pyridyl)-6-methyl-6,7-dihydro-4H-pyrazolo[1,5-a]pyrazine-5-carboxamide] | 7.18 | – |
| CC1Cn2ncc(N3CC(C)(C)CC3=O)c2CN1C(=O)Nc1ccc(F)c(Cl)c1 (stereo not drawn) [Example 212, N-(3-chloro-4-fluoro-phenyl)-3-(4,4-dimethyl-2-oxo-pyrrolidin-1-yl)-6-methyl-6,7-dihydro-4H-pyrazolo[1,5-a]pyrazine-5-carboxamide] | 7.48 | – |
| CC1COC(=O)N(c2cnn3c2CN(C(=O)Nc2cc(F)c(F)c(F)c2)[C@@H](C)C3)C1 (stereo partly drawn) [Example 278, (6S)-6-methyl-3-(5-methyl-2-oxo-1,3-oxazinan-3-yl)-N-(3,4,5-trifluorophenyl)-6,7-dihydro-4H-pyrazolo[1,5-a]pyrazine-5-carboxamide] | 7.57 | – |
| C[C@H]1Cn2ncc(N3CC4(CC3=O)CN(C(=O)c3ncco3)C4)c2CN1C(=O)Nc1cc(F)c(F)c(F)c1 [Example 336, (6S)-6-methyl-3-[2-(oxazole-2-carbonyl)-7-oxo-2,6-diazaspiro[3.4]octan-6-yl]-N-(3,4,5-trifluorophenyl)-6,7-dihydro-4H-pyrazolo[1,5-a]pyrazine-5-carboxamide] | 7.18 | – |
| C[C@H]1Cn2ncc(N3CC(c4ccccc4)C(O)C3=O)c2CN1C(=O)Nc1cc(F)c(F)c(F)c1 (single isomer, unassigned) [Example 438-1] | – | 8.00 |
| C[C@H]1Cn2ncc(N3CC(N(C)C(=O)c4ncco4)CC3=O)c2CN1C(=O)Nc1cc(F)c(F)c(F)c1 (stereo partly drawn) [Example 318, N-methyl-N-[1-[(6S)-6-methyl-5-[(3,4,5-trifluorophenyl)carbamoyl]-6,7-dihydro-4H-pyrazolo[1,5-a]pyrazin-3-yl]-5-oxo-pyrrolidin-3-yl]oxazole-2-carboxamide] | 7.35 | – |
| C[C@H]1Cn2ncc(N3CC(C)(C)OC3=O)c2CN1C(=O)Nc1cc(F)c(F)c(F)c1 [Example 250, (6S)-3-(5,5-dimethyl-2-oxo-oxazolidin-3-yl)-6-methyl-N-(3,4,5-trifluorophenyl)-6,7-dihydro-4H-pyrazolo[1,5-a]pyrazine-5-carboxamide] | 7.68 | – |

Reference: patent publication US11168086B2, “Methods of synthesizing pyrazine compounds” (Hoffmann-La Roche Inc., priority 2015, dated 2021)
